Legend:
Echinochloa crus-galli = test: Foliar spray on potted weeds at two to three leaf stage in greenhouse, herbicidal effect (Example 101); format: in vivo, inubie (common barnyardgrass; Echinochloa crus-galli); conditions: one week after spray
Procedure: (§1) A plastic pot was filled with a commercially-available culture soil, and thereto inubie (common barnyardgrass; Echinochloa crus-galli) or akinoenokorogusa (giant foxtail; Setaria faberi) was seeded, and covered with the soil to about 0.5 cm, followed by growing the weeds in a greenhouse. When the weeds grew to two to three leaf stage, a spray liquid of the compound X, a spray liquid of pyroxasulfone, or a spray liquid of the present composition was uniformly sprayed to the whole plants so that the application rate might be a predetermined value. The spray liquid of the present composition was prepared by mixing the spray liquid of the compound X with the spray liquid of pyroxasulfone. The spray liquid of the compound X was prepared by mixing a predetermined amount of the formulation X with deionized water. The spray liquid of pyroxasulfone was prepared by dissolving pyroxasulfone with a 2 wt % solution of TWEEN® (polyoxyethylenesorbitan fatty acid ester, manufactured by MP Biomedicals) in dimethylformamide, followed by mixing with deionized water. After applying the spray liquid, the plants were placed in a greenhouse for a week. A herbicidal effect was evaluated by classifying the effect into 101 stages from 0 (no effect) to 100 (completely dead).
(§2) The expected value of the herbicidal effect in the case of mixed use was calculated from the result of the herbicidal effect in the case of single use of each of the compounds (the value of A or B) according to the formula of Colby ((expected value)=100−(100−A)×(100−B)/100).

Setaria faberi = test: as above; format: in vivo, akinoenokorogusa (giant foxtail; Setaria faberi); conditions: one week after spray
Procedure: as §1, §2

[1] = pyroxasulfone 10 g/ha alone, scale 0 to 100
[2] = pyroxasulfone 100 g/ha alone, scale 0 to 100
[3] = Compound X 5 g/ha alone, scale 0 (no effect) to 100 (completely dead)
[4] = Compound X 10 g/ha alone, scale 0 to 100

Row | Compound | Herbicidal effect on Echinochloa crus-galli (observed value) (Echinochloa crus-galli; [1]) | Herbicidal effect on Echinochloa crus-galli (observed value) (Echinochloa crus-galli; [2]) | Herbicidal effect on Setaria faberi (observed value) (Setaria faberi; [1]) | Herbicidal effect on Setaria faberi (observed value) (Setaria faberi; [2]) | Herbicidal effect on Echinochloa crus-galli (observed value) (Echinochloa crus-galli; [3]) | Herbicidal effect on Echinochloa crus-galli (observed value) (Echinochloa crus-galli; [4]) | Herbicidal effect on Setaria faberi (observed value) (Setaria faberi; [3]) | Herbicidal effect on Setaria faberi (observed value) (Setaria faberi; [4])
1 | Cn1nc(C(F)(F)F)c(CS(=O)(=O)C2=NOC(C)(C)C2)c1OC(F)F [pyroxasulfone] | 0 | 0 | 0 | 0 | – | – | – | –
2 | CCOC(=O)COc1ncccc1Oc1cc(-n2c(=O)cc(C(F)(F)F)n(C)c2=O)c(F)cc1Cl [Compound X, ethyl [3-[2-chloro-4-fluoro-5-(1-methyl-6-trifluoromethyl-2,4-dioxo-1,2,3,4-tetrahydropyrimidin-3-yl)phenoxy]-2-pyridyloxy]acetate] | – | – | – | – | 20 | 35 | 30 | 45
